# Measurements reported in US7601756B2, “Method of treatment for irritable bowel syndrome” (Snowden Pharmaceuticals, LLC, priority 2003, dated 2009).
# Columns and labels:
# [1] = test system: irritable bowel syndrome (IBS) symptoms; experiment: Patient subjective evaluation of IBS symptoms before and after treatment (case studies); format: in vivo, human
# Method: Each patient subjectively evaluated his or her symptoms both before and after treatment on a scale from 0 to 10 with 0 representing the absence of symptoms and 10 indicating the most severe symptoms. […] Patient 2 also was treated with Gemfibrozil 600 mg twice daily. […] Patient 3 was originally treated with Gemfibrozil 600 mg twice daily.
# [2] = test system: HDL (high density lipoprotein) level; experiment: HDL level of Patient 1 after treatment; format: in vivo, human; details: Gemfibrozil 600 mg twice a day, later testing
# Source text: Patient 1 suffered from a variety of conditions including diabetes, post traumatic attention deficit disorder, and irritable bowel syndrome. […] However, upon resuming the Gemfibrozil treatment, the levels were again reduced.
# [3] = Patient 1, Gemfibrozil 600 mg twice a day, within a day, scale 0 to 10, before 8
# [4] = Patient 2, Gemfibrozil 600 mg twice daily, after 1.5 days, scale 0 to 10, before 0
# [5] = Patient 3, Gemfibrozil 600 mg twice daily, after 2 days, scale 0 to 10, before 7
smiles,measurement,setting,value
"Cc1ccc(C)c(OCCCC(C)(C)C(=O)O)c1 [Gemfibrozil, 5-(2,5-dimethylphenoxy)-2,2-dimethylpentanoic acid]",Change of evaluation of IBS symptoms,"[1]; Patient 1, Gemfibrozil 600 mg twice a day, within a day",significant improvement
same,Patient evaluation of symptoms: Gas (After),"[1]; Patient 1, Gemfibrozil 600 mg twice a day, within a day, scale 0 to 10 (0 absence, 10 most severe), before 4",1
same,Patient evaluation of symptoms: Constipation (After),"[1]; Patient 1, Gemfibrozil 600 mg twice a day, within a day, scale 0 to 10, before 0",0
same,Patient evaluation of symptoms: Overall (After),"[1]; Patient 1, Gemfibrozil 600 mg twice a day, within a day, scale 0 to 10, before 6.5",1
same,Patient evaluation of symptoms: Cramps/Pain (After),[1]; [3],1
same,Patient evaluation of symptoms: Mucus (After),[1]; [3],2
same,Patient evaluation of symptoms: Diarrhea (After),"[1]; Patient 1, Gemfibrozil 600 mg twice a day, within a day, scale 0 to 10, before 9",1
same,IBS symptom levels upon resuming treatment,"[1]; Patient 1, Gemfibrozil treatment resumed",again reduced
same,IBS symptoms on discontinued use,"[1]; Patient 1, use of Gemfibrozil discontinued",returned to the before levels
same,Side effect experienced under treatment,"[1]; Patient 2, Gemfibrozil 600 mg twice daily",occasional constipation
same,IBS symptoms after treatment,"[1]; Patient 2, Gemfibrozil 600 mg twice daily, after 1.5 days of treatment",virtually disappeared
same,Patient evaluation of symptoms: Gas (After),"[1]; Patient 2, Gemfibrozil 600 mg twice daily, after 1.5 days of treatment, scale 0 to 10, before 4.5",0
same,Patient evaluation of symptoms: Constipation (After),[1]; [4],3
same,Patient evaluation of symptoms: Mucus (After),[1]; [4],0
same,Patient evaluation of symptoms: Cramps/Pain (After),"[1]; Patient 2, Gemfibrozil 600 mg twice daily, after 1.5 days, scale 0 to 10, before 5",0
same,Patient evaluation of symptoms: Diarrhea (After),"[1]; Patient 2, Gemfibrozil 600 mg twice daily, after 1.5 days, scale 0 to 10, before 8.5",0
same,Patient evaluation of symptoms: Overall (After),"[1]; Patient 2, Gemfibrozil 600 mg twice daily, after 1.5 days, scale 0 to 10, before 9",1
same,IBS symptoms after treatment,"[1]; Patient 3, Gemfibrozil 600 mg twice daily, after 2 days of treatment",greatly improved
same,Patient evaluation of symptoms: Gas (After),"[1]; Patient 3, Gemfibrozil 600 mg twice daily, after 2 days of treatment, scale 0 to 10, before 3",1
same,Patient evaluation of symptoms: Constipation (After),"[1]; Patient 3, Gemfibrozil 600 mg twice daily, after 2 days, scale 0 to 10, before 0",0
same,Patient evaluation of symptoms: Mucus (After),"[1]; Patient 3, Gemfibrozil 600 mg twice daily, after 2 days, scale 0 to 10, before 3",0
same,Patient evaluation of symptoms: Cramps/Pain (After),[1]; [5],2
same,Patient evaluation of symptoms: Overall (After),[1]; [5],2
same,Patient evaluation of symptoms: Diarrhea (After),"[1]; Patient 3, Gemfibrozil 600 mg twice daily, after 2 days, scale 0 to 10, before 9",3
same,HDL level after treatment,[2],increased
"CC(C)OC(=O)C(C)(C)Oc1ccc(C(=O)c2ccc(Cl)cc2)cc1 [micronized fenofibrate, 2-(4-(4-chlorobenzoyl)phenoxy)-2-methyl-propanoic acid 1-methyl ethyl ester]",Patient evaluation of symptoms in all categories,"[1]; Patient 3, micronized fenofibrate 200 mg daily, after discontinuing Gemfibrozil, scale 0 to 10",0
